From paper PMC7235778, “Methylxanthines Inhibit Primary Amine Oxidase and Monoamine Oxidase Activities of Human Adipose Tissue” (Medicines, 2020)
Blank lines part the entries; values can stand above or below the compound they belong to.

Legend:
[1] = target: T1, primary amine oxidase (PrAO; SSAO/VAP-1) (Homo sapiens, UniProt Q16853); assay: Amplex Red H2O2 assay of methylamine and benzylamine oxidation in adipose tissue homogenate; format: cell-based; conditions: read-out: % inhibition at 1 mM
T1 construct: gene AOC3; native enzyme in human subcutaneous adipose tissue homogenate
T1 sequence (Q16853 1-763): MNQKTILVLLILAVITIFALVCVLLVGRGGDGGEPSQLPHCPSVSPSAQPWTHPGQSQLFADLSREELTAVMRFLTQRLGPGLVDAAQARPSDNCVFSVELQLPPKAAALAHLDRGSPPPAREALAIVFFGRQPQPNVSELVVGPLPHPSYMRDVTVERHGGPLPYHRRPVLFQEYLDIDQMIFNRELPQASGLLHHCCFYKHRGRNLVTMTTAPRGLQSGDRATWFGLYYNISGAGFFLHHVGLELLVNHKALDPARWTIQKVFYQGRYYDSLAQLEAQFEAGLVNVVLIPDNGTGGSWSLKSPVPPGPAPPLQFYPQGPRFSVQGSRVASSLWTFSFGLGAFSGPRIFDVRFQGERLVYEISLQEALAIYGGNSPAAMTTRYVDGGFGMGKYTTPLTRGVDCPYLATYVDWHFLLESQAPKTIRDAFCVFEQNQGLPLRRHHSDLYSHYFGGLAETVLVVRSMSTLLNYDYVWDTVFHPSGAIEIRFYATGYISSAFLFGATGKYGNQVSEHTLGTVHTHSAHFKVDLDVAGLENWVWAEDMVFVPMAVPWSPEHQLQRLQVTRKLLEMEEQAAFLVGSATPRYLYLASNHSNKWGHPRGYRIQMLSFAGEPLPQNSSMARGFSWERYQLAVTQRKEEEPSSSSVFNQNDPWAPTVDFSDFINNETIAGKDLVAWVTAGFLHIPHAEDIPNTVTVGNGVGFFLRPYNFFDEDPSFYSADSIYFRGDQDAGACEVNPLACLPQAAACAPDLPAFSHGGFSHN

[2] = target: T1, primary amine oxidase (PrAO; SSAO/VAP-1); assay: Amplex Red H2O2 assay of benzylamine and methylamine oxidation in adipose tissue homogenate; format: biochemical
[3] = target: T1, primary amine oxidase (PrAO; SSAO/VAP-1); assay: as above; format: cell-based; conditions: read-out: % inhibition at 2.5 mM
[4] = target: T1, primary amine oxidase (PrAO; SSAO/VAP-1); assay: Amplex Red H2O2 assay of benzylamine oxidation in adipose tissue homogenate; Lineweaver-Burk analysis; format: cell-based; conditions: read-out: % inhibition at 2.5 mM

inhibition at 1000 µM [1]: ~80%
SMILES: CC(C)Cn1c(=O)n(C)c(=O)c2[nH]cnc21 [IBMX, 3-isobutyl-1-methylxanthine]

SMILES: NNC(N)=O [Semi, semicarbazide]
Amplex Red H2O2 assay of benzylamine and methylamine oxidation in adipose tissue [2]: total inhibition at 1

SMILES: Cn1c(=O)c2c(ncn2C)n(C)c1=O [caffeine]
inhibition at 2500 µM [3]: ~50%

inhibition at 2500 µM [4]: 54%
SMILES: Cn1cnc2c1c(=O)[nH]c(=O)n2C [theobromine]
